Reference: patent publication US20230270713A1, “Administration of Resiniferatoxin For Treatment of Bladder Pain or Bladder Cancer” (Sorrento Therapeutics, Inc., priority 2020, published 2023)
Where “and” joins values, the source holds several entries; their conditions need not be identical. Equal entries are not always repeated.

Key:
[1] = Plasma concentration of RTX (HPLC) after intravesical instillation in healthy cats; type: in vivo, cat
Protocol: To examine the effect of intravesical instillation of RTX on the bladder, 6 healthy cats, between the 2-5 years of age, were treated with either 5 (low dose), 25 (mid dose) or 50 mcg (high dose) of RTX (volume was 25 ml; concentrations were 0.2, 1, and 2 mcg/ml). These doses are considered equivalent to administration of 20, 100, or 200 mcg in a human with a volume of 100 ml. A seventh cat received saline only and served as the control. The bladders of the anesthetized cats were emptied and then flushed with sterile saline via a foley urinary catheter. Once the saline was removed, the treatment with RTX (test cats) or saline alone (control cat) was administered over 60 seconds and left in the bladder for 20 minutes.
The bladder of each cat was emptied and blood samples for pharmacokinetic analysis were collected pre-RTX treatment and at 0.5, 1, and 4 hours post RTX treatment.

dogs with bladder cancer = assay: Lower urinary tract symptom scale in dogs with bladder cancer (Example D); type: in vivo, dog; details: 1.0 or 2.0 ug/ml intravesical
Protocol: (§1) Dogs with bladder cancer were treated with RTX as follows. Under general anesthesia, RTX was infused directly into the bladder using a foley catheter. RTX remained in the bladder for 30 minutes before removal.
6 dogs were enrolled and treated at the following doses: • <10 kg: RTX 25 ug diluted in 24 ml NaCl (1.0 ug/ml solution) • >10 kg: RTX 50 ug diluted in 48 ml NaCl (1.0 ug/ml solution)
7 dogs were then enrolled and treated at the following doses: • <10 kg: RTX 25 ug diluted in 11.5 ml NaCl (2.0 ug/ml solution) • 10-25 kg: RTX 50 ug diluted in 23 ml NaCl (2.0 ug/ml solution) • >25 kg: RTX 100 ug diluted in 46 ml NaCl (2.0 ug/ml solution)
Three dogs were treated twice with at least 28 days between treatments. Two dogs were lost to follow-up after day 0.
(§2) The primary endpoint was assessment of improvement of lower urinary tract signs with a 4-point lower urinary tract symptom scale (character of urination/degree of straining; frequency of urination (daytime); frequency of urination (nighttime); and blood in urine). The secondary endpoints were anti-cancer effect, as measured by bladder ultrasound, and quality of life.

bladder cancer (TCC) = assay: Preliminary anti-cancer effect by bladder ultrasound in dogs with bladder cancer (Example D); type: in vivo, dog
Protocol: as §1, §2

[2] = Adverse effects in dogs with bladder TCC (Example F); type: in vivo, dog; details: 16 dogs with bladder TCC
Protocol: RTX was administered as a one-time treatment into the bladder on Day 0 with the option of repeating RTX at a future study day. A Foley urinary catheter was placed using a sterile standard technique. An abdominal ultrasound was concurrently performed to ensure that the tip of the catheter was in the bladder lumen. Urine was removed using a catheter tipped syringe.
RTX was diluted in 0.9% NaCl and then infused into the bladder. The catheter was then flushed with 5-6 mL of 0.9% NaCl to ensure the entire IVP volume was administered. The Foley catheter was capped and remained in place for a period of 30 minutes post-infusion. The bladder was then emptied prior to removal of the Foley catheter. The timing of recovery was managed on an individual basis, but it was recommended to initiate recovery approximately 10 minutes after RTX infusion.

In the case of `C=C(C)[C@]12C[C@@H](C)[C@@]34O[C@](Cc5ccccc5)(O[C@@H]1[C@@H]3C=C(COC(=O)Cc1ccc(O)c(OC)c1)C[C@]1(O)C(=O)C(C)=C[C@@H]41)O2` [RTX, resiniferatoxin], the “Plasma concentration of RTX” value ([1]; 5 mcg total intravesical, 0 h, individual cats) was “BQL (BQL = Below the Quantifiable Limit (<50.0 pg/mL).)”, the “Plasma concentration of RTX” value ([1]; 5 mcg total intravesical, 0.5 h, individual cats) was “BQL (BQL = Below the Quantifiable Limit (<50.0 pg/mL).)” and the “Plasma concentration of RTX” value ([1]; 5 mcg total intravesical, 1 h, individual cats) was “BQL (BQL = Below the Quantifiable Limit (<50.0 pg/mL).)”. The “Plasma concentration of RTX” value ([1]; 5 mcg total intravesical, 4 h, individual cats) was “BQL (BQL = Below the Quantifiable Limit (<50.0 pg/mL).)”, the “Plasma concentration of RTX” value ([1]; 25 mcg total intravesical, 0 h, individual cats) was “BQL (BQL = Below the Quantifiable Limit (<50.0 pg/mL).)” and the “Plasma concentration of RTX” value ([1]; 25 mcg total intravesical, 0.5 h, individual cats) was 55.5 pg/ml and 10.1* pg/ml. For the same compound, the “Plasma concentration of RTX” value ([1]; 25 mcg total intravesical, 1 h, individual cats) was “BQL (BQL = Below the Quantifiable Limit (<50.0 pg/mL).)”, the “Plasma concentration of RTX” value ([1]; 25 mcg total intravesical, 4 h, individual cats) was “BQL (BQL = Below the Quantifiable Limit (<50.0 pg/mL).)” and the “Plasma concentration of RTX” value ([1]; 50 mcg total intravesical, 0 h, individual cats) was “BQL (BQL = Below the Quantifiable Limit (<50.0 pg/mL).)”. The “Plasma concentration of RTX” value ([1]; 50 mcg total intravesical, 0.5 h, individual cats) was “BQL (BQL = Below the Quantifiable Limit (<50.0 pg/mL).)”, the “Plasma concentration of RTX” value ([1]; 50 mcg total intravesical, 1 h, individual cats) was “BQL (BQL = Below the Quantifiable Limit (<50.0 pg/mL).)” and the “Plasma concentration of RTX” value ([1]; 50 mcg total intravesical, 4 h, individual cats) was “BQL (BQL = Below the Quantifiable Limit (<50.0 pg/mL).)”. The “Plasma levels of RTX” value ([1]; all 3 groups, all time points (0, 0.5, 1, 4 h) except 0.5 h (25, 50 mcg) and 1 h (25 mcg)) was “below 50 pg/mL”, the RTX in plasma ([1]; all groups, 4 hours) was “below quantifiable levels” and the concentration at 1 h ([1]; cat, plasma, other: intravesical instillation, 25 mcg, 25 mcg total intravesical, 1 h, individual cats) was 0.0135 ng/mL. The concentration at 0.5 h ([1]; cat, plasma, other: intravesical instillation, 50 mcg, 50 mcg total intravesical, 0.5 h, individual cats) was 0.00877 ng/mL, the “Improvement of at Least 1 Score, percent of dogs” value (dogs with bladder cancer; Day 7, n = 11) was 54.5% and the “Improvement of at Least 2 Scores, percent of dogs” value (dogs with bladder cancer; Day 7, n = 11) was 36.4%. The “Improvement of at least 1 score (lower urinary tract symptom scale), number of dogs” value (dogs with bladder cancer; Day 7, n = 11) was 6, the “Improvement of at least 2 scores (lower urinary tract symptom scale), number of dogs” value (dogs with bladder cancer; Day 7, n = 11) was 4 and the “Improvement of at Least 1 Score, percent of dogs” value (dogs with bladder cancer; Day 14, n = 11) was 72.7%. The “Improvement of at Least 2 Scores, percent of dogs” value (dogs with bladder cancer; Day 14, n = 11) was 45.5%, the “Improvement of at least 1 score (lower urinary tract symptom scale), number of dogs” value (dogs with bladder cancer; Day 14, n = 11) was 8 and the “Improvement of at least 2 scores (lower urinary tract symptom scale), number of dogs” value (dogs with bladder cancer; Day 14, n = 11) was 5. For the same compound, the “Improvement of at Least 1 Score, percent of dogs” value (dogs with bladder cancer; Day 28, n = 8) was 75.0%, the “Improvement of at Least 2 Scores, percent of dogs” value (dogs with bladder cancer; Day 28, n = 8) was 50.0% and the “Improvement of at least 1 score (lower urinary tract symptom scale), number of dogs” value (dogs with bladder cancer; Day 28, n = 8) was 6. For the same compound, the “Improvement of at least 2 scores (lower urinary tract symptom scale), number of dogs” value (dogs with bladder cancer; Day 28, n = 8) was 4, the “Improvement of at Least 1 Score, percent of dogs” value (dogs with bladder cancer; Day 56, n = 5) was 100% and the “Improvement of at Least 2 Scores, percent of dogs” value (dogs with bladder cancer; Day 56, n = 5) was 60.0%. The “Improvement of at least 1 score (lower urinary tract symptom scale), number of dogs” value (dogs with bladder cancer; Day 56, n = 5) was 5, the “Improvement of at least 2 scores (lower urinary tract symptom scale), number of dogs” value (dogs with bladder cancer; Day 56, n = 5) was 3 and the “Improvement of at Least 1 Score, percent of dogs” value (dogs with bladder cancer; Day 84, n = 3) was 100%. The “Improvement of at Least 2 Scores, percent of dogs” value (dogs with bladder cancer; Day 84, n = 3) was 66.7%, the “Improvement of at least 1 score (lower urinary tract symptom scale), number of dogs” value (dogs with bladder cancer; Day 84, n = 3) was 3 and the “Improvement of at least 2 scores (lower urinary tract symptom scale), number of dogs” value (dogs with bladder cancer; Day 84, n = 3) was 2. The “Best overall tumor response: change in largest tumor diameter” value (bladder cancer (TCC); Case 03-01, 9.0 kg dog, 25 ug (2.8 ug/kg), Day 84) was −30%, the “Best Overall Response: tumor volume” value (bladder cancer (TCC); Case 41-02, 38.8 kg dog, 50 ug (1.3 ug/kg) dosed twice 28 days apart, Day 28) was −24% and the Tolerability [2] was “very well tolerated”. For the same compound, the “dose dependence of the most commonly reported AE (emesis, diarrhea, anorexia)” value [2] was “did not appear to be dose dependent”, the “AE anorexia, number of dogs” value ([2]; RTX 25-100 μg intravesical) was 4 dogs and the “AE anorexia, percent of dogs” value ([2]; RTX 25-100 μg intravesical) was 25.0%. For the same compound, the “AE diarrhea, number of dogs” value ([2]; RTX 25-100 μg intravesical) was 5 dogs, the “AE diarrhea, percent of dogs” value ([2]; RTX 25-100 μg intravesical) was 31.3% and the “AE emesis, number of dogs” value ([2]; RTX 25-100 μg intravesical) was 6 dogs. For the same compound, the “AE emesis, percent of dogs” value ([2]; RTX 25-100 μg intravesical) was 37.5%, the “AE lethargy, number of dogs” value ([2]; RTX 25-100 μg intravesical) was 4 dogs and the “AE lethargy, percent of dogs” value ([2]; RTX 25-100 μg intravesical) was 25.0%. For the same compound, the “dogs with an SAE” value ([2]; SAE considered most likely related to tumor progression) was 1 dog and the “severity of the most common AEs” value ([2]; except one anorexia event considered severe) was “mild to moderate (Grade 1 or 2)”.
